Results from paper PMC4256409, “Role of Phenylalanine and Valine^10 Residues in the Antimicrobial Activity and Cytotoxicity of Piscidin-1” (PLoS ONE, 2014).
Where no end group is shown, it is not given here.

How the values were obtained:
[1] = test system: Standard bacterial strains; assay type: cell-based; details: average over the 14 standard bacterial strains of Table 2
[2] = test system: Drug-resistant bacterial strains; details: average over the 18 drug-resistant bacterial strains of Table 3
Source text: Escherichia coli KCTC 1682, E. coli KCTC 2593, E. coli KCTC 2571, Salmonella typhimurium KCTC 1926, Pseudomonas aeruginosa KCTC 1637, P. aeruginosa KCTC 2004, P. aeruginosa KCTC 2513, Bacillus subtilis KCTC 3068, B. subtilis KCTC 1021, B. subtilis KCTC 1022, Staphylococcus epidermidis KCTC 1917, Staphylococcus aureus KCTC 1621, S. aureus KCTC 1916, and S. aureus KCTC 3881 were purchased from the Korean Collection for Type Cultures, Korea Research Institute of Bioscience & Biotechnology (Taejon, Korea). Methicillin-resistant S. aureus (MRSA) (CCARM 3089, CCARM 3090, CCARM 3108, CCARM 3114, and CCARM 3126), multidrug-resistant E. coli (MDREC) (CCARM 1229 and CCARM 1238), multidrug-resistant S. typhimurium (MDRST) (CCARM 8003, CCARM 8007, and CCARM 8009), multidrug-resistant Acinetobacter baumanii (MDRAB) (CCARM 12005, CCARM 12035, CCARM 12036, CCARM 12037), and multidrug-resistant P. aeruginosa (MDRPA) (CCARM 2002, CCARM 2003, CCARM 2095, and CCARM 2163) were obtained from the Culture Collection of Antibiotic-Resistant Microbes (CCARM) at Seoul Women’s University in Korea. The antimicrobial activities of the peptides against selected organisms, including three Gram-positive, three Gram-negative, and five antibiotic-resistant bacteria, were determined using a broth microdilution assay. Briefly, single colonies of bacteria and fungi were inoculated into Luria-Bertani (LB) medium and cultured overnight at 37°C. An aliquot of the culture was transferred to 10 mL of fresh LB and incubated for an additional 3–5 h at 37°C until it reached the mid-logarithmic phase. Two-fold serial dilutions of the peptides in 1% peptone were prepared. The serial dilutions (100 µL) were added to 100 µL of cells (2×10^6 colony-forming units (CFU)/mL) in 96-well microtiter plates and incubated at 37°C for 16 h. […] MIC values were calculated as the average of triplicate measurements from three independent assays.

B. subtilis KCTC1021 = assay type: cell-based, Bacillus subtilis; details: KCTC1021, 16 h
B. subtilis KCTC3068 = assay type: cell-based, Bacillus subtilis; details: KCTC3068, 16 h
B. subtilis KCTC1022 = assay type: cell-based, Bacillus subtilis; details: KCTC1022, 16 h
MRSA CCARM 3090 = assay type: cell-based, Methicillin-resistant S. aureus; details: CCARM 3090, 16 h
P. aeruginosa KCTC1637 = assay type: cell-based, Pseudomonas aeruginosa; details: KCTC1637, 16 h
E. coli KCTC2593 = assay type: cell-based, Escherichia coli; details: KCTC2593, 16 h
MDRAB CCARM 12036 = assay type: cell-based, multidrug-resistant Acinetobacter baumanii; details: broth microdilution, 37°C, 16 h, three independent experiments in triplicate, SD 14.0%
MDRPA CCARM 2002 = assay type: cell-based, multidrug-resistant P. aeruginosa; details: broth microdilution, 37°C, 16 h, three independent experiments in triplicate, SD 14.0%
E.coli KCTC2571 = assay type: cell-based, Escherichia coli; details: KCTC2571, 16 h
MDRST CCARM 8003 = assay type: cell-based, multidrug-resistant S. typhimurium; details: broth microdilution, 37°C, 16 h, three independent experiments in triplicate, SD 14.0%
MDRST CCARM 8007 = assay type: cell-based, multidrug-resistant S. typhimurium; details: broth microdilution, 37°C, 16 h, three independent experiments in triplicate, SD 14.0%
MDREC CCARM 1229 = assay type: cell-based, multidrug-resistant E. coli; details: broth microdilution, 37°C, 16 h, three independent experiments in triplicate, SD 14.0%
S. epidermidis KCTC1917 = assay type: cell-based, Staphylococcus epidermidis; details: KCTC1917, 16 h
E. coli KCTC1682 = assay type: cell-based, Escherichia coli; details: KCTC1682, 16 h
S. aureus KCTC1621 = assay type: cell-based, Staphylococcus aureus; details: KCTC1621, 16 h
MDRAB CCARM 12037 = assay type: cell-based, multidrug-resistant Acinetobacter baumanii; details: broth microdilution, 37°C, 16 h, three independent experiments in triplicate, SD 14.0%
P. aeruginosa KCTC2004 = assay type: cell-based, Pseudomonas aeruginosa; details: KCTC2004, 16 h
MRSA CCARM3089 = assay type: cell-based, Methicillin-resistant S. aureus; details: CCARM3089, 16 h
S. aureus KCTC1916 = assay type: cell-based, Staphylococcus aureus; details: KCTC1916, 16 h
S. typhimurium KCTC1926 = assay type: cell-based, Salmonella typhimurium; details: KCTC1926, 16 h
MRSA CCARM 3114 = assay type: cell-based, Methicillin-resistant S. aureus; details: CCARM 3114, 16 h
MDRAB CCARM 12005 = assay type: cell-based, multidrug-resistant Acinetobacter baumanii; details: broth microdilution, 37°C, 16 h, three independent experiments in triplicate, SD 14.0%
MDRPA CCARM 2003 = assay type: cell-based, multidrug-resistant P. aeruginosa; details: broth microdilution, 37°C, 16 h, three independent experiments in triplicate, SD 14.0%
MDRPA CCARM 2095 = assay type: cell-based, multidrug-resistant P. aeruginosa; details: broth microdilution, 37°C, 16 h, three independent experiments in triplicate, SD 14.0%
MDRST CCARM 8009 = assay type: cell-based, multidrug-resistant S. typhimurium; details: broth microdilution, 37°C, 16 h, three independent experiments in triplicate, SD 14.0%
S. aureus KCTC3881 = assay type: cell-based, Staphylococcus aureus; details: KCTC3881, 16 h
MDRAB CCARM 12035 = assay type: cell-based, multidrug-resistant Acinetobacter baumanii; details: broth microdilution, 37°C, 16 h, three independent experiments in triplicate, SD 14.0%
MDREC CCARM 1238 = assay type: cell-based, multidrug-resistant E. coli; details: broth microdilution, 37°C, 16 h, three independent experiments in triplicate, SD 14.0%
MDRPA CCARM 2163 = assay type: cell-based, multidrug-resistant P. aeruginosa; details: broth microdilution, 37°C, 16 h, three independent experiments in triplicate, SD 14.0%
MRSA CCARM 3108 = assay type: cell-based, Methicillin-resistant S. aureus; details: CCARM 3108, 16 h
P. aeruginosa KCTC2513 = assay type: cell-based, Pseudomonas aeruginosa; details: KCTC2513, 16 h
MRSA CCARM 3126 = assay type: cell-based, Methicillin-resistant S. aureus; details: CCARM 3126, 16 h

Row | Sequence | Average MIC [1] [µM] | Average MIC [2] [µM] | MIC (B. subtilis KCTC1021) [µM] | MIC (B. subtilis KCTC3068) [µM] | MIC (B. subtilis KCTC1022) [µM] | MIC (MRSA CCARM 3090) [µM] | MIC (P. aeruginosa KCTC1637) [µM] | MIC (E. coli KCTC2593) [µM] | MIC (MDRAB CCARM 12036) [µM] | MIC (MDRPA CCARM 2002) [µM] | MIC (E.coli KCTC2571) [µM] | MIC (MDRST CCARM 8003) [µM] | MIC (MDRST CCARM 8007) [µM] | MIC (MDREC CCARM 1229) [µM] | MIC (S. epidermidis KCTC1917) [µM] | MIC (E. coli KCTC1682) [µM] | MIC (S. aureus KCTC1621) [µM] | MIC (MDRAB CCARM 12037) [µM] | MIC (P. aeruginosa KCTC2004) [µM] | MIC (MRSA CCARM3089) [µM] | other results
1 | FFHHIKRGIVHVGKTIHRLVTG [Pis-F6K] | 4.6 | 11 | 4.0 | 4.0 | 1.0 | 16 | 8.0 | 2.0 | 4.0 | 4.0 | 4.0 | 16 | 16 | 16 | 2.0 | 4.0 | 4.0 | 4.0 | 8.0 | 16 | MIC (S. aureus KCTC1916): 4.0 µM; MIC (S. typhimurium KCTC1926): 8.0 µM; MIC (MRSA CCARM 3114): 16 µM; MIC (MDRAB CCARM 12005): 4.0 µM; MIC (MDRPA CCARM 2003): 4.0 µM; MIC (MDRPA CCARM 2095): 4.0 µM; MIC (MDRST CCARM 8009): 16 µM; MIC (S. aureus KCTC3881): 4.0 µM; MIC (MDRAB CCARM 12035): 4.0 µM; MIC (MDREC CCARM 1238): 16 µM; MIC (MDRPA CCARM 2163): 4.0 µM; MIC (MRSA CCARM 3108): 16 µM; MIC (P. aeruginosa KCTC2513): 8.0 µM; MIC (MRSA CCARM 3126): 16 µM
2 | KFHHIFRGIKHVGKTIHRLVTG [Pis-F1K/V10K] | 1.8 | 4.0 | 4.0 | 1.0 | 2.0 | 4.0 | 1.0 | 2.0 | 2.0 | 2.0 | 2.0 | 8.0 | 8.0 | 4.0 | 1.0 | 1.0 | 2.0 | 2.0 | 2.0 | 4.0 | MIC (S. aureus KCTC1916): 2.0 µM; MIC (S. typhimurium KCTC1926): 1.0 µM; MIC (MRSA CCARM 3114): 8.0 µM; MIC (MDRAB CCARM 12005): 2.0 µM; MIC (MDRPA CCARM 2003): 2.0 µM; MIC (MDRPA CCARM 2095): 2.0 µM; MIC (MDRST CCARM 8009): 8.0 µM; MIC (S. aureus KCTC3881): 2.0 µM; MIC (MDRAB CCARM 12035): 2.0 µM; MIC (MDREC CCARM 1238): 4.0 µM; MIC (MDRPA CCARM 2163): 2.0 µM; MIC (MRSA CCARM 3108): 4.0 µM; MIC (P. aeruginosa KCTC2513): 2.0 µM; MIC (MRSA CCARM 3126): 4.0 µM
3 | FFHHIFRGIKHVGKTIHRLVTG [Pis-V10K] | 1.6 | 3.8 | 4.0 | 1.0 | 2.0 | 8.0 | 1.0 | 2.0 | 2.0 | 2.0 | 2.0 | 8.0 | 4.0 | 4.0 | 1.0 | 1.0 | 1.0 | 2.0 | 2.0 | 8.0 | MIC (S. aureus KCTC1916): 2.0 µM; MIC (S. typhimurium KCTC1926): 1.0 µM; MIC (MRSA CCARM 3114): 4.0 µM; MIC (MDRAB CCARM 12005): 2.0 µM; MIC (MDRPA CCARM 2003): 2.0 µM; MIC (MDRPA CCARM 2095): 2.0 µM; MIC (MDRST CCARM 8009): 4.0 µM; MIC (S. aureus KCTC3881): 1.0 µM; MIC (MDRAB CCARM 12035): 2.0 µM; MIC (MDREC CCARM 1238): 4.0 µM; MIC (MDRPA CCARM 2163): 2.0 µM; MIC (MRSA CCARM 3108): 4.0 µM; MIC (P. aeruginosa KCTC2513): 2.0 µM; MIC (MRSA CCARM 3126): 4.0 µM
